US12516104B2, “Compositions and methods for diagnosis and treatment of cancer” (BioNTech SE, priority 2018, dated 2026)
Ends that are not written are not given here.

How the values were obtained:
[1] = target: T1, FN-6789 (Homo sapiens, UniProt P02751); test: ELISA specificity: binding of Trx-cystine-knot miniproteins to off-target FN-6789 and control proteins; conditions: for off-target and control protein signals: 200 nM Trx-fusion, FN-6789, milk powder, streptavidin, bovine serum albumin
T1 construct: type III domains 6-9 without EDB (FN-6789); made in house; host or cells: E. coli BL21 (DE3), pET-21a
Experimental: FIG. 4: Specificity analysis of Trx-cystine-knot miniprotein clones MCopt 1.0-1/-2/-3 and MCopt 2.0-1/-2/-3. 200 nM of each variant were applied to immobilized FN-B and FN-67B89 target proteins as well as to control proteins FN-6789, milk powder and bovine serum albumin (coated at 1 μg/well). An HRP-conjugated anti-s-tag antibody was used to analyze binding. ELISA was performed in duplicates with Trx-MC-Myc-010 serving as negative control.
FIG. 5: Extended specificity analysis of Trx-cystine-knot miniprotein clones MCopt 1.0-2/-3 and MCopt 2.0-1/-2/3. In total 200 nM of each variant were applied to FN-B, T7-TEV-B, FN-67B89 and FN-B(8-14) target proteins as well as negative controls FN-6789, milk powder, bovine serum albumin, lysozyme, ovalbumin and aldolase (coated at 1 μg/well). ELISA was performed in duplicates, error bars represent standard deviation and Trx-MC-Myc-010 served as negative cystine-knot miniprotein control.
FIG. 6: Saturation-binding curves of MCopt 1.0-2/-3 and MCopt 2.0-1/-2/-3 EDB binding. Trx-cystine-knot miniprotein binding was assayed against FN-B, FN-67B89 and FN-B(8-14) targets as well as against FN-6789 control protein (coated at 1 μg/well) in ten different concentrations. Binding of Trx-cystine-knot miniproteins was detected with an HRP-conjugated anti-s-tag-antibody. ELISAs were performed in duplicates (single values for FN-B(8-14)). A: from top to bottom SEQ ID NOs: 7, 8, and 12; and B: from top to bottom SEQ ID NOs: 11, 8, and 29.
FIG. 9: A: Specificity analysis of Trx-MC-FN-010 to human FN-67B89 and FN-6789 using ELISA. B: Specificity analysis of Trx-MC-FN-016 to human FN-67B89 and FN-6789 using ELISA. Binding of Trx-MC-FN-010 and Trx-MC-FN-016 to FN-67B89 with concentrations ranging from 1.56-50 nM in comparison to FN-6789 was detected with 50 ng of HRP-conjugated anti-S-tag-antibody. ELISA was performed in duplicates using 1 μg coated FN-67B89 or FN-6789 per well.
ELISA was used as technique to analyze protein-protein interactions. Cavities of 96-well microtiter plates (Nunc MaxiSorp™, Thermo Fisher Scientific) were coated with 1 μg FN-B, bovine serum albumin (BSA, Eurobio), milk powder, streptavidin (Sigma Aldrich), T7-His-TEV-B (LD BioPharma), FN-B(8-14) (R&D Systems), lysozyme, ovalbumin (GE Healthcare Life Science), aldolase (GE Healthcare Life Science) or 0.6 μg anti-c-myc-antibody (M4439, Sigma) overnight at 4° C. The wells were washed three times with PBS-T (1×PBS with 0.1% (w/v) Tween-20), blocked with 1× Casein buffer (Sigma Aldrich) diluted in PBS for 2 h at RT and washed again as described. 20 μL of supernatant containing the respective heat-purified fusion protein was added to 80 μL PBS-T or 200 nM of MC-Myc-010 fusion protein (wells with anti-c-myc-antibody) diluted in PBS-T, applied to the cavities and incubated for 1 h at 4° C. After three times of washing with PBS-T, binding of the respective variant was detected with a horseradish peroxidase (HRP)-conjugated anti-S-tag antibody (ab18589 or ab19324, Abcam). Enzymatic reaction was measured with TMB as a chromogenic substrate and stopped with 0.2 M HCl after approximately 5 min. The measurement of absorbance at 450 nm was performed using an Infinite M200 PRO Microplate Reader (Tecan).

[2] = tested on: U-87 MG tumor tissues; test: Immunofluorescence staining of U-87 MG xenograft tumor sections; type: binding, human; conditions: biotinylated miniprotein tetramerized with Cy3-labeled streptavidin; CD31 co-staining
Experimental: FIG. 8: Specific binding of MC-FN-010 to glioblastoma xenograft tumor sections. Representative results of immunofluorescence staining of U-87 MG tumor tissues with EDB ligand MC-FN-010 and negative control MC-FN-0115. The tissue sections (5 μm) were stained with tetramerized cystine-knot miniprotein-biotin strepatividin-Cy3 complex (red) and with an anti-CD31 antibody to visualize vasculature (green). Scale bars indicate 100 μm.
FIG. 13: Specific binding of MC-FN-010 to tissue sections derived from the human U-87 MG glioblastoma cell line grown as mouse xenograft tumor. […] Tissue sections (6 μm) were stained with Alexa Fluor 680 conjugated trimeric cystine-knot miniproteins and an anti-CD31 antibody detected with a secondary antibody to visualize vasculature. […]
(§1) For immunofluorescence staining cryopreserved tumor or brain pieces were cut in five micron thick sections, fixed in ice cold acetone for 5 min and air-dried. […] Images were captured with a Zeiss Apotome microscope (Carl Zeiss) and analyzed with ZEN software (Carl Zeiss).
(§2) Cryopreserved tumor or brain pieces were cut in six micron thick sections, fixed in l ice cold acetone for 5 min and air-dried. […] CD31 staining of primary anti-mouse CD31 antibody was detected with a secondary anti-rabbit IgG-Cy3 antibody (111-165-003, Jackson ImmunoResearch) diluted 1:400 in PBS with 1% BSA for 30 min at 37° C. […]

[3] = tested on: normal mouse brain; test: Immunofluorescence staining of normal mouse brain sections; type: binding; conditions: biotinylated miniprotein tetramerized with Cy3-labeled streptavidin
Experimental: FIG. 12: Representative immunofluorescence staining of normal mouse brain with EDB ligand MC-FN-010 and negative control MC-FN-0115. Tissue sections (6 μm) were stained with tetramerized cystine-knot miniprotein-biotin/strepatividin-Cy3 complex and an anti-CD31 antibody to visualize vasculature. Scale bars, 100 μm.
FIG. 13: Specific binding of MC-FN-010 to tissue sections derived from the human U-87 MG glioblastoma cell line grown as mouse xenograft tumor. Representative immunofluorescence staining of U-87 MG tumor tissues (A) and normal mouse brain (B) with trimeric MC-FN-010 and negative control MC-FN-0115. Tissue sections (6 μm) were stained with Alexa Fluor 680 conjugated trimeric cystine-knot miniproteins and an anti-CD31 antibody detected with a secondary antibody to visualize vasculature. […]
as §1, §2

[4] = target: T2, FN-67B89 (Homo sapiens, UniProt P02751); test: Surface plasmon resonance spectroscopy on immobilized biotinylated FN-67B89; type: binding; conditions: for off-rates / binding affinity towards biotinylated FN-67B89: tag-free monomer; for binding affinity towards biotinylated FN-67B89: multi cycle kinetic, 1:1 Langmuir
T2 construct: FN-67B89, amino acid G1080-E1455; made in house; host or cells: E. coli BL21 (DE3), pET-21a
Experimental: FIG. 10: A: Kinetic parameters of MC-FN-010 and MC-FN-016 resulting from surface plasmon resonance analysis. Biotinylated human FN-67B89 was immobilized to streptavidin sensor to perform affinity determination of MC-FN-010 and MC-FN-016 using two-fold serial dilutions starting from 4000 nM. Kinetic parameters were calculated using a 1:1 Langmuir fitting model applied to generated sensorgrams. B: Kinetic parameters of AF680-(MC-FN-010)3 and AF680-(MC-FN-016)3 resulting from surface plasmon resonance with single cycle kinetic analysis. Biotinylated human FN-67B89 was immobilized to streptavidin chip to perform binding determination of AF680-(MC-FN-010)3 and AF680-(MC-FN-016)3 using two-fold serial dilution starting from 10 nM. Kinetic parameters were calculated using a 1:1 Langmuir fitting model applied to generated sensorgrams.
FIG. 15: SPR binding analysis of cystine-knot miniprotein variants to EDB. Kinetic parameters of EDB-specific cystine-knot miniprotein variants as measured by surface plasmon resonance analysis and calculated using a 1:1 Langmuir fitting model. Biotinylated human FN-67B89 was immobilized to a streptavidin sensor to determine affinity of DOTA-(MC-FN-016)3 using two-fold serial dilutions.
Binding kinetics of monomeric and trimeric cystine-knot miniprotein ligands to its target protein was determined using a Biacore T-100 device (GE Healthcare Life Science) with PBS-T as running buffer. For this, the biotinylated FN-67B89 protein (200-300 μg/mL) was captured by binding to a flow cell of a SA sensor chip (GE Healthcare Life Science). To analyze monomeric ligands an immobilized target density of maximum 750 response units (RU) was applied and for trimeric variants a RU of maximum 400 was aimed for. Binding analysis of monomeric ligands was performed using a multi cycle kinetic method with concentrations ranging from 50 to 4000 nM. A cycle started with an association period of 90 sec, followed by a dissociation period of 420 sec and a final regeneration step. Kinetic measurement was conducted applying a flow rate of 20 μL/min. Trimeric variants were analyzed under the same association and dissociation conditions, but using the single cycle kinetic measurement mode in a constant flow of […]. In this case the analyte concentration was between 1.25 nM to 10 nM. Binding kinetics and steady state analysis were calculated using a global kinetic fit model (1:1 Langmuir, Biacore T-100 Evaluation Software, GE Healthcare Life Science).

T1 sequence (P02751 32-2386 isoform P02751-1 limits assumed): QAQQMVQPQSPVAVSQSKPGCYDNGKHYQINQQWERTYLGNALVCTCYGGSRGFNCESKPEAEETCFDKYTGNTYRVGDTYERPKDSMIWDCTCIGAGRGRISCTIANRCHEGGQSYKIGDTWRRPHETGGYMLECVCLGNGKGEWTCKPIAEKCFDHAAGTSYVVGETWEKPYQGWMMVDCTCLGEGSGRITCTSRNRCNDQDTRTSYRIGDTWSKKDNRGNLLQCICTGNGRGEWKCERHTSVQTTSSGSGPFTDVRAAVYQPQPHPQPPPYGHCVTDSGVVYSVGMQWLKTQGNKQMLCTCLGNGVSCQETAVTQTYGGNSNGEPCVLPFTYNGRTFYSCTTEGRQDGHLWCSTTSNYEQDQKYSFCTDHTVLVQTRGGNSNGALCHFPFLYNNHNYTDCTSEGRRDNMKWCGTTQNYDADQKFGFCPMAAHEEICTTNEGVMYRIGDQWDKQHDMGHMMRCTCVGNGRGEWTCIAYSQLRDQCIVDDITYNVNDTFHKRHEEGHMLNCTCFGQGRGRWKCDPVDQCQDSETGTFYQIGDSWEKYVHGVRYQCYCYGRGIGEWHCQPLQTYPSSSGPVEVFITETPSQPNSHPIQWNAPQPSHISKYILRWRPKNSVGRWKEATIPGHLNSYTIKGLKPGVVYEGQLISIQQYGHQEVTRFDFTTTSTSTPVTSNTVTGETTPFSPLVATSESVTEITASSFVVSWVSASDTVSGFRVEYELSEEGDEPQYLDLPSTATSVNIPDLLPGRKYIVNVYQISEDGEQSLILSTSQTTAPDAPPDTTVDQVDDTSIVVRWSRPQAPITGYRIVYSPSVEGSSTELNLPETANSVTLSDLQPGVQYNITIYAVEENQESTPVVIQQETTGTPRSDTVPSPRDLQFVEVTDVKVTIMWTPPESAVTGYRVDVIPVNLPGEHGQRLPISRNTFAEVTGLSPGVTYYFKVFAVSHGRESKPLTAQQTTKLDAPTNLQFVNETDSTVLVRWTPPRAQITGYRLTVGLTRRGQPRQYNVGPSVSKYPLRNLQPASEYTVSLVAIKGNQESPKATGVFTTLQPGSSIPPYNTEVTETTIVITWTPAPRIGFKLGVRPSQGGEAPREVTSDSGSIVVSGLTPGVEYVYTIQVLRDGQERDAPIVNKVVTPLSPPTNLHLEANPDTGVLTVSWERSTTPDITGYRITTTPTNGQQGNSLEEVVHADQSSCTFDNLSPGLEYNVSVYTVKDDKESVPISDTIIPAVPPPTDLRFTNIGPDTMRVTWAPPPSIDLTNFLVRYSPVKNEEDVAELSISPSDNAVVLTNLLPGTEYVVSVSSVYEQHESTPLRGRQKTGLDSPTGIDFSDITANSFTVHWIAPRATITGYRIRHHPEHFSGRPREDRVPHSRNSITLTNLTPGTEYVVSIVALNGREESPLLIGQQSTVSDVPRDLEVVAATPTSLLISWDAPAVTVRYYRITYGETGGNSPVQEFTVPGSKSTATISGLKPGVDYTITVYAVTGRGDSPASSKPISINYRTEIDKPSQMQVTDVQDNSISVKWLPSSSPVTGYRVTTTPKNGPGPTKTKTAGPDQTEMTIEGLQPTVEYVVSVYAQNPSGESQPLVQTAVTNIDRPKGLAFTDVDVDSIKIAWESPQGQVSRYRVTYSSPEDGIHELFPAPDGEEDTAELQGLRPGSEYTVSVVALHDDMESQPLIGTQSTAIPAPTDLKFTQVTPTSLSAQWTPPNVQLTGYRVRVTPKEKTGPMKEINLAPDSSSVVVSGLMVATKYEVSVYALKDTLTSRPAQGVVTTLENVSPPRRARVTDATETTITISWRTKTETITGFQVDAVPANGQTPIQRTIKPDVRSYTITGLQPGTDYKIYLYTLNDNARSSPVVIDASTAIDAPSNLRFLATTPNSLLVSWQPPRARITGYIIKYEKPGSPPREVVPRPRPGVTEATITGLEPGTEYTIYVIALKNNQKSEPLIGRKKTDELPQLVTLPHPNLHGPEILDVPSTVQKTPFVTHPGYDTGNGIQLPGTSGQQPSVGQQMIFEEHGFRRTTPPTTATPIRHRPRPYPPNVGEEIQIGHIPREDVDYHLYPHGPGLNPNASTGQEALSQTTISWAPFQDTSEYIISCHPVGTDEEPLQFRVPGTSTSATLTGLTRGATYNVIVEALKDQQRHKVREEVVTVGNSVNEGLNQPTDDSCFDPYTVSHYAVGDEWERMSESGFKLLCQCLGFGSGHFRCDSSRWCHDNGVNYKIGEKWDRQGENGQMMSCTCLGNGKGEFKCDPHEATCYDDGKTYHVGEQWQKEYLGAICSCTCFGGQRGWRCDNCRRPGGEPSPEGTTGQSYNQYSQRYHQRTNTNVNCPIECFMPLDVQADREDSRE
T2 sequence (P02751 1080-1546): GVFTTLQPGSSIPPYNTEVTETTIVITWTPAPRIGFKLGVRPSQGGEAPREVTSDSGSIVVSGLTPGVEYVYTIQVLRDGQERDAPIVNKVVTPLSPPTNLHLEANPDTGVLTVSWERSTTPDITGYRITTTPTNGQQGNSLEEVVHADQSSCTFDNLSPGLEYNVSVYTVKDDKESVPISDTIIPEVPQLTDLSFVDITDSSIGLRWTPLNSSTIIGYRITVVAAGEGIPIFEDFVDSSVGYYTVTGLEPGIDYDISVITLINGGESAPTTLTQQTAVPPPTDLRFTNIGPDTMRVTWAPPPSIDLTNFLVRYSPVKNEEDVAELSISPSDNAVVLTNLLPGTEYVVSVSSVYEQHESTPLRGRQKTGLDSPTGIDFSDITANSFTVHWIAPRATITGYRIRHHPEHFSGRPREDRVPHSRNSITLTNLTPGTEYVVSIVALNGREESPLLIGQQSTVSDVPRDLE

MCopt 1.0-1: enriched cystine-knot miniprotein clone without the R-I/V-R-(L) motif, SEQ ID NO: 10 (WTCTKKYPNTISCRRDSDCRVTCICRGNGYCG; EDB binding peptide)
off-target and control protein signals [1]: high interaction

PMCTQRANRIAACRRDSDCTGACICRGNGYCG (Control peptide) [MC-FN-0115, reference compound]
immunofluorescence staining of U-87 MG tumor sections [2]: no fluorescence signal at all | fluorescence signal on normal mouse brain section [3]: No fluorescence signal

PMCTQRANRIRLCRRDSDCTGACICRGNGYCG [MC-FN-016]
off-rates [4]: fast | binding affinity towards biotinylated FN-67B89 [4]: one digit micromolar range

PMCTQRKNRIRLCRRDSDCTGACICRGNGYCG (cysteine pairing not given here) [MC-FN-010]
off-rates [4]: fast | binding affinity towards biotinylated FN-67B89 [4]: one digit micromolar range | binding towards FN-67B89 target protein ([4]; tag-free proteins, 50-1000 nM, data not shown): strong binding | off-target and control protein signals [1]: medium to low | fluorescence signal on normal mouse brain section [3]: No fluorescence signal

SVCAHYNTIRVRLCRRDSDCPGACICRGNGYCG (cysteine pairing not given here) [MCopt 2.0-2]
off-target and control protein signals [1]: medium to low

SVCKNVSIMRIRLCRRDSDCPGACICRGNGYCG (cysteine pairing not given here) [MCopt 2.0-1]
off-target and control protein signals [1]: medium to low

SVCKQANFVRIRLCRRDSDCPGACICRGNGYCG (cysteine pairing not given here) [MCopt 2.0-3]
off-target and control protein signals [1]: medium to low | background signals / unspecific binding towards FN-6789 off-target ([1]; dose-dependent saturation-binding ELISA, compared with EDB containing target proteins): high degree of unspecific binding

WKCQPTNGYRIRCRRDSDCPGDCICRGNGYCG (cysteine pairing not given here) [MCopt 1.0-2]
off-target and control protein signals [1]: medium to low
